From patent US8247211B2, “Glycopeptide antibiotics” (American Cyanamid Company, priority 2001, dated 2012)
≈ marks a conversion by molar mass, not a printed value.

Assays:
Experiment in all cases: In vitro antibacterial evaluation: minimum inhibitory concentration (MIC), broth dilution method
Type in all cases: cell-based
Escherichia coli = settings: 18 hours at 35° C.
Procedure, shortened: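 Susceptibility determined by NCCLS-recommended broth dilution (M7-A2), Muller-Hinton II […]. Concentration span 64-0.06 μg/mL, inoculum 5×10^5 CFU/mL. Isolates include strains resistant to methicillin, penicillin and/or vancomycin.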

Staphylococcus sp. = tested on: Staphylococcus sp.
Procedure, shortened: (§1)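 Inoculum: 5×10^5 CFU/mL. Range: 64-0.06 μg/mL. Medium: Muller-Hinton II […]; NCCLS M7-A2 broth dilution. Endpoint: lowest concentration inhibiting growth. Strains include methicillin-, penicillin- and/or vancomycin-resistant clinical isolates.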

Streptococcus sp. = settings: 18 hours at 35° C.
Procedure, shortened: as §1

Enterococcus sp. = settings: 18 hours at 35° C.
Procedure, shortened: as §1

[1] = broth dilution, inoculum 5×10^5 CFU/mL

SMILES: N=C1NCC(C(O)C2NC(=O)C(Cc3ccc(OC4OC(CO)C(OC5OC6COC(c7ccccc7)OC6C(O)C5O)C(O)C4O)cc3)NC(=O)C(CC3CCCCC3)NC(=O)CNC(=O)C(CO)NC(=O)C(C(O)C3CNC(=N)N3C3OC(CO)C(O)C(O)C3O)NC2=O)N1 (stereo not drawn) [Example 199, Cyclo[3-cyclohexylalanyl-O-[4-O-(4,6-O-benzylidenehexopyranosyl)hexopyranosyl]tyrosyl-3-(2-iminoimidazolidin-4-yl)seryl-3-(3-hexopyranosyl-2-iminoimidazolidin-4-yl)-seryl-serylglycyl]]
- MIC Escherichia coli (ATCC 25922) (Escherichia coli; Escherichia coli (ATCC 25922)): 64 µg/mL (≈ 46.5 µM)
- MIC Escherichia coli (GC 4559) (Escherichia coli; Escherichia coli (GC 4559)): 32 µg/mL (≈ 23.3 µM)
- MIC Escherichia coli (GC 4560) (Escherichia coli; Escherichia coli (GC 4560)): 1 µg/mL (≈ 0.727 µM)
- MIC Staphylococcus aureus (ATCC 29213) (Staphylococcus sp.; strain ATCC 29213): 2 µg/mL (≈ 1.45 µM)
- MIC Staphylococcus aureus (GC 1131) (Staphylococcus sp.; strain GC 1131): 2 µg/mL (≈ 1.45 µM)
- MIC Staphylococcus aureus (GC 3051) (Staphylococcus sp.; strain GC 3051): 1 µg/mL (≈ 0.727 µM)
- MIC Staphylococcus aureus (GC 3053) (Staphylococcus sp.; strain GC 3053): 2 µg/mL (≈ 1.45 µM)
- MIC Staphylococcus aureus (GC 4541) (Staphylococcus sp.; strain GC 4541): 2 µg/mL (≈ 1.45 µM)
- MIC Staphylococcus aureus (GC 4542) (Staphylococcus sp.; strain GC 4542): 1 µg/mL (≈ 0.727 µM)
- MIC Staphylococcus aureus-SMITH (GC 4543) (Staphylococcus sp.; strain GC 4543): 1 µg/mL (≈ 0.727 µM)
- MIC Staphylococcus aureus (GC 4544) (Staphylococcus sp.; strain GC 4544): 2 µg/mL (≈ 1.45 µM)
- MIC Staphylococcus aureus (GC 4545) (Staphylococcus sp.; strain GC 4545): 1 µg/mL (≈ 0.727 µM)
- MIC Staphylococcus haemolyticus (GC 4546) (Staphylococcus sp.; strain GC 4546): 1 µg/mL (≈ 0.727 µM)
- MIC Coagulase Negative Staphylococcus (GC 4547) (Staphylococcus sp.; strain GC 4547): 2 µg/mL (≈ 1.45 µM)
- MIC Coagulase Negative Staphylococcus (GC 4548) (Staphylococcus sp.; strain GC 4548): 0.5 µg/mL (≈ 0.364 µM)
- MIC Coagulase Negative Staphylococcus (GC 4549) (Staphylococcus sp.; strain GC 4549): 0.5 µg/mL (≈ 0.364 µM)
- MIC Coagulase Negative Staphylococcus (GC 4551) (Staphylococcus sp.; strain GC 4551): 1 µg/mL (≈ 0.727 µM)
- MIC Streptococcus agalactiae (GC 4564) (Streptococcus sp.; Streptococcus agalactiae (GC 4564)): <0.12 µg/mL
- MIC Streptococcus pneumoniae (ATCC 6301) (Streptococcus sp.; Streptococcus pneumoniae (ATCC 6301)): <0.12 µg/mL
- MIC Streptococcus pneumoniae (GC 1894) (Streptococcus sp.; Streptococcus pneumoniae (GC 1894)): <0.12 µg/mL
- MIC Streptococcus pneumoniae (GC 4565) (Streptococcus sp.; Streptococcus pneumoniae (GC 4565)): <0.12 µg/mL
- MIC Streptococcus pyogenes (GC 4563) (Streptococcus sp.; Streptococcus pyogenes (GC 4563)): <0.12 µg/mL
- MIC Streptococcus agalactiae (GC 4564) (Streptococcus sp.; [1]): <0.12 µg/mL
- MIC Streptococcus pneumoniae (ATCC 6301) (Streptococcus sp.; [1]): <0.12 µg/mL
- MIC Streptococcus pneumoniae (GC 1894) (Streptococcus sp.; [1]): <0.12 µg/mL
- MIC Streptococcus pneumoniae (GC 4565) (Streptococcus sp.; [1]): <0.12 µg/mL
- MIC Streptococcus pyogenes (GC 4563) (Streptococcus sp.; [1]): <0.12 µg/mL
- MIC Enterococcus avium (GC 4558) (Enterococcus sp.; Enterococcus avium (GC 4558)): 2 µg/mL (≈ 1.45 µM)
- MIC Enterococcus faecalis (ATCC 29212) (Enterococcus sp.; Enterococcus faecalis (ATCC 29212)): 4 µg/mL (≈ 2.91 µM)
- MIC Enterococcus faecalis (GC 2242) (Enterococcus sp.; Enterococcus faecalis (GC 2242)): 2 µg/mL (≈ 1.45 µM)
- MIC Enterococcus faecalis (GC 2691) (Enterococcus sp.; Enterococcus faecalis (GC 2691)): 4 µg/mL (≈ 2.91 µM)
- MIC Enterococcus faecalis (GC 3059) (Enterococcus sp.; Enterococcus faecalis (GC 3059)): 4 µg/mL (≈ 2.91 µM)
- MIC Enterococcus faecalis (GC 4552) (Enterococcus sp.; Enterococcus faecalis (GC 4552)): 4 µg/mL (≈ 2.91 µM)
- MIC Enterococcus faecalis (GC 4553) (Enterococcus sp.; Enterococcus faecalis (GC 4553)): 4 µg/mL (≈ 2.91 µM)
- MIC Enterococcus faecalis (GC 4554) (Enterococcus sp.; Enterococcus faecalis (GC 4554)): 4 µg/mL (≈ 2.91 µM)
- MIC Enterococcus faecalis (GC 6189) (Enterococcus sp.; Enterococcus faecalis (GC 6189)): 2 µg/mL (≈ 1.45 µM)
- MIC Enterococcus faecium (GC 2243) (Enterococcus sp.; Enterococcus faecium (GC 2243)): 4 µg/mL (≈ 2.91 µM)
- MIC Enterococcus faecium (GC 4556) (Enterococcus sp.; Enterococcus faecium (GC 4556)): 4 µg/mL (≈ 2.91 µM)
- MIC Enterococcus faecium (GC 4557) (Enterococcus sp.; Enterococcus faecium (GC 4557)): 2 µg/mL (≈ 1.45 µM)
- MIC Enterococcus avium (GC 4558) (Enterococcus sp.; [1]): 2 µg/mL (≈ 1.45 µM)
- MIC Enterococcus faecalis (ATCC 29212) (Enterococcus sp.; [1]): 4 µg/mL (≈ 2.91 µM)
- MIC Enterococcus faecalis (GC 2242) (Enterococcus sp.; [1]): 2 µg/mL (≈ 1.45 µM)
- MIC Enterococcus faecalis (GC 2691) (Enterococcus sp.; [1]): 4 µg/mL (≈ 2.91 µM)
- MIC Enterococcus faecalis (GC 3059) (Enterococcus sp.; [1]): 4 µg/mL (≈ 2.91 µM)
- MIC Enterococcus faecalis (GC 4552) (Enterococcus sp.; [1]): 4 µg/mL (≈ 2.91 µM)
- MIC Enterococcus faecalis (GC 4553) (Enterococcus sp.; [1]): 4 µg/mL (≈ 2.91 µM)
- MIC Enterococcus faecalis (GC 4554) (Enterococcus sp.; [1]): 4 µg/mL (≈ 2.91 µM)
- MIC Enterococcus faecalis (GC 6189) (Enterococcus sp.; [1]): 2 µg/mL (≈ 1.45 µM)
- MIC Enterococcus faecium (GC 2243) (Enterococcus sp.; [1]): 4 µg/mL (≈ 2.91 µM)
- MIC Enterococcus faecium (GC 4556) (Enterococcus sp.; [1]): 4 µg/mL (≈ 2.91 µM)
- MIC Enterococcus faecium (GC 4557) (Enterococcus sp.; [1]): 2 µg/mL (≈ 1.45 µM)
